Values of other authors, collected in patent US6764693B1, “Free radical quenching composition and a method to increase intracellular and/or extracellular antioxidants” (Amaox, Ltd., priority 1992, dated 2004).

How the values were obtained:
[1] = system: HIV in U1 cell line (promonocytes); conditions: increasing thiol concentration in culture medium of U1 cells
[2] = pH of 1.0
T lymphocytes = conditions: activated leukocytes combined with T lymphocytes
[3] = oxidants from activated leukocytes
[4] = antioxidant placed in liposomes
[5] = separate experimental protocols
[6] = free GSH, intravenous

Compound	effect on HIV [1]	effect on lipid peroxidation of liposomes [3]	mortality [5]	further results
CC(=O)N[C@@H](CS)C(=O)O [NAC, N-acetyl-cysteine]	suppression of viral assembly, HIV reverse transcriptase production and viral replication			rate constant K2 against the hydroxyl radical [2]: 1.36×10^10
catalase		inhibited peroxidation		suppression of lymphocytic function (T lymphocytes): no suppression of lymphocytic function
beta carotene [beta-carotene]		conferred protection against lipid peroxidation		effect on lipid peroxidation in liposomes exposed to uv [4]: inhibited
Cc1c(C)c2c(c(C)c1O)CCC(C)(CCCC(C)CCCC(C)CCCC(C)C)O2 (stereo not drawn) [vitamin E, alpha-tocopherol]		conferred protection against lipid peroxidation	46%	effect on lipid peroxidation in liposomes exposed to uv [4]: inhibited
glutathione ester [GSE]	suppression of viral assembly, HIV reverse transcriptase production and viral replication			
N[C@@H](CCC(=O)N[C@@H](CS)C(=O)NCC(=O)O)C(=O)O [glutathione]	suppression of viral assembly, HIV reverse transcriptase production and viral replication		100%	rate constant K2 against the hydroxyl radical [2]: 8.8×10^9; t½ [6]: approximately 1.6 minutes
CC(C)(C)/[N+]([O-])=C/c1ccccc1 [PBN, phenyltertylnitrone]			42%	
